Legend:
lipoamide = compound: NC(=O)CCCCC1CCSS1 [lipoamide]; experiment: thermal stability z-score vs DMSO; higher = more thermally stabilized by treatment; conditions: HeLa, lipoamide concentration 100 µM
Protocol: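 Cellular thermal proteome profiling in HeLa cells. Cells were treated with 100 µM lipoamide for 1 h, with or without 1 mM arsenate for a further 1 h, then heated to ten temperatures (37-66.3 °C), and soluble protein was quantified by TMT mass spectrometry relative to 0.1% DMSO controls. The thermal stability score (sum of log2 fold changes minus the abundance score) was transformed to a z-score; mean of n = 3 experiments.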

potassium arsenate = compound: O=[As]([O-])(O)O.[K+] [potassium arsenate]; experiment: as above; conditions: HeLa; arsenate concentration 1 mM
Protocol: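 Cellular thermal proteome profiling in HeLa cells treated with 1 mM arsenate for 1 h (DMSO pretreatment), heated to ten temperatures (37-66.3 °C). Soluble protein was quantified by TMT mass spectrometry relative to DMSO controls; the thermal stability score was transformed to a z-score; mean of n = 3 experiments.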

[1] = arsenate co-treatment: 1 mM arsenate 1 h
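Further: each temperature applied for 3 min, abundance score taken as mean log2 fold change at the two lowest temperatures, z-score obtained by mean subtraction and division by SD.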

UniProt Q86TW2, sequence (Q86TW2 whole entry): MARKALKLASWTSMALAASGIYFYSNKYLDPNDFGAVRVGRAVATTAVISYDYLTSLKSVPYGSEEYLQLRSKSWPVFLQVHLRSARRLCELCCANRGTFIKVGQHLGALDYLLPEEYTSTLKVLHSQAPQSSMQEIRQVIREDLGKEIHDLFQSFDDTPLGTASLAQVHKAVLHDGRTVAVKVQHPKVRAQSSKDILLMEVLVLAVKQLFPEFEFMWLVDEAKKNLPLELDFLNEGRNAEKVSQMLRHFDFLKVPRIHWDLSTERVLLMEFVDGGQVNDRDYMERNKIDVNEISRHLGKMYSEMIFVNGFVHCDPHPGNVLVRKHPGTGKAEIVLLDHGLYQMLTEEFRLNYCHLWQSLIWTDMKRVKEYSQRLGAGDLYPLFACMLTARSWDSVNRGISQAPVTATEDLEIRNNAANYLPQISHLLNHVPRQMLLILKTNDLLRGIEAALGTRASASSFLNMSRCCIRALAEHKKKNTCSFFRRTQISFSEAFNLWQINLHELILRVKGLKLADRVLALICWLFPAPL
UniProt Q9BXK1, sequence (Q9BXK1 whole entry): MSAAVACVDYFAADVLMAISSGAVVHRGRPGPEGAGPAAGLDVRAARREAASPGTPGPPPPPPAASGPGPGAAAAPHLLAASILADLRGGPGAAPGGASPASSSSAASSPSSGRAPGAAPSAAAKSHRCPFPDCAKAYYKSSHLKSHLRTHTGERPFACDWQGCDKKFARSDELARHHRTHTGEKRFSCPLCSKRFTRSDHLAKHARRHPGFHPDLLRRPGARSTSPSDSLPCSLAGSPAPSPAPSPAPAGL
UniProt Q5MIZ7, sequence (Q5MIZ7 whole entry): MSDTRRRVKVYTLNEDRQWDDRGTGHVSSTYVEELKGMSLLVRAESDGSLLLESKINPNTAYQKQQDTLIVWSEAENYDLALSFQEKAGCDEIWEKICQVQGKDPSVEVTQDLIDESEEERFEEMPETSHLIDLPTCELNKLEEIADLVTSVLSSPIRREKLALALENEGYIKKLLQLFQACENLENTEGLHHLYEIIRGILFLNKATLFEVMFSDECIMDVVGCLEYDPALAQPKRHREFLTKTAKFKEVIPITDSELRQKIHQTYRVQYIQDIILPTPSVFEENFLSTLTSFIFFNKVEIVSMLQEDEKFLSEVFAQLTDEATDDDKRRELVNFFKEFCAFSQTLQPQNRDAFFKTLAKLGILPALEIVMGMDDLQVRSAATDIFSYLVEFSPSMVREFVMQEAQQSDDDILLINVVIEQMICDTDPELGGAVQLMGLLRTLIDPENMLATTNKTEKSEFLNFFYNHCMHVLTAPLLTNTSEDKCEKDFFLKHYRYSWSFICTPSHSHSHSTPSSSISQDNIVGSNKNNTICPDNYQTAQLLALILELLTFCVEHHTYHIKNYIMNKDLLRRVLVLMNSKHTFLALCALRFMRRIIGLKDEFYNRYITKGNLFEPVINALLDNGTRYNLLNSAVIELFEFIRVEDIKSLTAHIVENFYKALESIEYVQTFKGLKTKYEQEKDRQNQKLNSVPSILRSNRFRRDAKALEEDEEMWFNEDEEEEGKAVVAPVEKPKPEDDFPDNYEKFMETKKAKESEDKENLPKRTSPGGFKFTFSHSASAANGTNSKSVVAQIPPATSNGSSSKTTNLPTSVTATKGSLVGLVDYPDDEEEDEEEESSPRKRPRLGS
UniProt O43933, sequence (O43933 whole entry): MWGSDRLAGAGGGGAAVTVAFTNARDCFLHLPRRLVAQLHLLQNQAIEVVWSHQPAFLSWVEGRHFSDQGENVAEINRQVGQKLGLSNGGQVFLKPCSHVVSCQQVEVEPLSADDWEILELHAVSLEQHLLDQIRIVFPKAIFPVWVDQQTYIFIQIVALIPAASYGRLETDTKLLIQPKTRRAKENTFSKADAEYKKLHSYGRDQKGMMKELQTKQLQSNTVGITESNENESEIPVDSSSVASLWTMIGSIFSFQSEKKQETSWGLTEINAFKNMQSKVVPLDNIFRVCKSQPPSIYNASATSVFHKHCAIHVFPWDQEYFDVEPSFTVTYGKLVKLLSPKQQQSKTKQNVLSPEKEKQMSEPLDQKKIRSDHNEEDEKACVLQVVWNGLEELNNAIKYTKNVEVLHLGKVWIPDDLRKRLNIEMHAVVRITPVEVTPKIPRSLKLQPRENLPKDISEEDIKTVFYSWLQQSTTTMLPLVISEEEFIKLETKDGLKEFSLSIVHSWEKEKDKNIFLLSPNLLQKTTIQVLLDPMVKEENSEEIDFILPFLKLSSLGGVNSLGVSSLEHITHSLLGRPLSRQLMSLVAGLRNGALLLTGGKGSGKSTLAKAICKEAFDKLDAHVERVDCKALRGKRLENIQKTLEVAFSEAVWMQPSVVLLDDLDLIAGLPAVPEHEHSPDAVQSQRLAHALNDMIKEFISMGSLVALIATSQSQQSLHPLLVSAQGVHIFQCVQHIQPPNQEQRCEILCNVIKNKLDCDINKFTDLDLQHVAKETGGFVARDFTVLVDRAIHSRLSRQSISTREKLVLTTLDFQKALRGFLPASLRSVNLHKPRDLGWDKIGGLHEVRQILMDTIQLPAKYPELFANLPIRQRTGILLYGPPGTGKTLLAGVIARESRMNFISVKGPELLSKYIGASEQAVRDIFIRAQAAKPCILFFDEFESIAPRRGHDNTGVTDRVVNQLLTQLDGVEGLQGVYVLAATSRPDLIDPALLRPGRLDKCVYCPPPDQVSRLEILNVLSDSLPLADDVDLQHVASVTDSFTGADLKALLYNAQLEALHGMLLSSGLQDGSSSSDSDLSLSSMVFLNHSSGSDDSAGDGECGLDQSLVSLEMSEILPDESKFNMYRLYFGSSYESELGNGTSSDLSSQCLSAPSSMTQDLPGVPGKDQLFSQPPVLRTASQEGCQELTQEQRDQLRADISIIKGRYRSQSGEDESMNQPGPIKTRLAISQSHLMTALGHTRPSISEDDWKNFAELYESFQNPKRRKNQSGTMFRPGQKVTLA
UniProt Q9GZY8, sequence (Q9GZY8 whole entry): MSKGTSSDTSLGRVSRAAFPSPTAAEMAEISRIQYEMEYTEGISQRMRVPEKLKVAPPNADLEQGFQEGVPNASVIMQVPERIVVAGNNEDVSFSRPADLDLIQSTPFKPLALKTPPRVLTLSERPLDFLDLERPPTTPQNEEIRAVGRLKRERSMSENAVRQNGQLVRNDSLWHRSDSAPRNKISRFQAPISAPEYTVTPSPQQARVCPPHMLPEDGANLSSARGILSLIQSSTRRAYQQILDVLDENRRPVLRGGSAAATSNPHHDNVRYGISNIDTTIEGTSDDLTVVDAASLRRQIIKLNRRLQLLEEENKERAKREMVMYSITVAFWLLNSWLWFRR
UniProt P61981, sequence (P61981 whole entry): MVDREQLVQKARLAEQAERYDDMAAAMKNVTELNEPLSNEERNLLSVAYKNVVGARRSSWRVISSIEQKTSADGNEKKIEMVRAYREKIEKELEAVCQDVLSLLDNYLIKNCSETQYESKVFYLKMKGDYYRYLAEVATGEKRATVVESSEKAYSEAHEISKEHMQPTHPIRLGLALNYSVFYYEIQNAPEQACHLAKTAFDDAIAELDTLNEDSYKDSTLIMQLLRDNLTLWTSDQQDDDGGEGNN
UniProt Q9Y5X3, sequence (Q9Y5X3 whole entry): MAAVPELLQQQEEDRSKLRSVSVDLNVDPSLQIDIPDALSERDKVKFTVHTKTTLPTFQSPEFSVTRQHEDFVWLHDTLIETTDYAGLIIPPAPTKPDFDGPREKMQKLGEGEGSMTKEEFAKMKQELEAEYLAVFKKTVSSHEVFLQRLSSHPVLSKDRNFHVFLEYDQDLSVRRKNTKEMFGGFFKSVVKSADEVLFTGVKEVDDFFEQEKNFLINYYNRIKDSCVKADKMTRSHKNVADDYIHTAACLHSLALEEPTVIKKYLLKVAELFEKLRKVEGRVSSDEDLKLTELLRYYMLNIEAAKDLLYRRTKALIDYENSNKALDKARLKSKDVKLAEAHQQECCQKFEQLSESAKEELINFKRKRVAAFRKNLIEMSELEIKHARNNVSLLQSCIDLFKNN
UniProt Q9NWV4, sequence (Q9NWV4 whole entry): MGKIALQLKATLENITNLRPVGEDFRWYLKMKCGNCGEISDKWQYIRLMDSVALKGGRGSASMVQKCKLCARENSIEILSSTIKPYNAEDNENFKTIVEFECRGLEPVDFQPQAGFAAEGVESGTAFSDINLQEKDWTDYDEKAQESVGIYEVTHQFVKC
UniProt Q96LB3, sequence (Q96LB3 whole entry): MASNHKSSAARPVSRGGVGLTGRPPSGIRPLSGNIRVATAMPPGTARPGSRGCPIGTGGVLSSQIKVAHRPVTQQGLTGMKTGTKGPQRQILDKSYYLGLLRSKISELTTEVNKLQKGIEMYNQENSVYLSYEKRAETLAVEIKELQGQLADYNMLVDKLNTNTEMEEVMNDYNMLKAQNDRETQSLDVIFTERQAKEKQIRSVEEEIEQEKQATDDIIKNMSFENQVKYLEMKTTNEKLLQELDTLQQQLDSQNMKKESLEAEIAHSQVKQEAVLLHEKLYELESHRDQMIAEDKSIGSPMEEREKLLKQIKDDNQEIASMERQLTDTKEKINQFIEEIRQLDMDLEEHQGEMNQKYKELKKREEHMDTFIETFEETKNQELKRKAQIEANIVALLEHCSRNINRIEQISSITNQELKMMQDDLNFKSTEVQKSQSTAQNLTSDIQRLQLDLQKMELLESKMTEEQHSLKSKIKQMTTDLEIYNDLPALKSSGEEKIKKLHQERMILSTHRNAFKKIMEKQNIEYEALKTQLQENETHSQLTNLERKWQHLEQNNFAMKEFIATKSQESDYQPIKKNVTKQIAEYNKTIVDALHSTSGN
UniProt Q5VWZ2, sequence (Q5VWZ2 whole entry): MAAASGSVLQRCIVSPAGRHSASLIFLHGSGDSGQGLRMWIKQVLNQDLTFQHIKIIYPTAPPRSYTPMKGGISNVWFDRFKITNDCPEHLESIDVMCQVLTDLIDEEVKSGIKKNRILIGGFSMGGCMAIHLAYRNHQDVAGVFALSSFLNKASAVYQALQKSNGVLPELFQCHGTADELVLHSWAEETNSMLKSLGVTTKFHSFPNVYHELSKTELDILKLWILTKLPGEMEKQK

Target	thermal stability z-score (lipoamide; [1])	thermal stability z-score (lipoamide; arsenate co-treatment: none)	thermal stability z-score (potassium arsenate)
NOMO1 (UniProt Q15155)	-0.893	-1.83	0.353
AAR2 (UniProt Q9Y312)	-0.223	0.408	-0.912
TBL1XR1 (UniProt Q9BZK7)	1.11	0.307	-0.746
C1ORF123 (UniProt Q9NWV4)	-0.384	-0.409	-0.929
MORC3 (UniProt Q14149)	-0.165	-0.119	-0.054
KCTD9 (UniProt Q7L273)	0.34	0.375	-0.315
EDEM3 (UniProt Q9BZQ6)	-3.5	-2.77	0.485
PTPN11 (UniProt Q06124)	0.431	0.267	-0.559
COMMD1 (UniProt Q8N668)	0.0519	0.0285	-0.333
KIF11 (UniProt P52732)	-0.347	0.00677	1.19
KLF16 (UniProt Q9BXK1)	-0.384	0.0662	0.778
PARS2 (UniProt Q7L3T8)	-0.928	-0.492	-0.314
EML3 (UniProt Q32P44)	0.0786	-0.13	-0.524
SRGN (UniProt P10124)	-0.234	0.0347	-0.673
SCAMP4 (UniProt Q969E2)	0.196	0.377	0.0173
CHCHD2 (UniProt Q9Y6H1)	1.56	1.34	0.592
ECSIT (UniProt Q9BQ95)	0.434	-0.221	-0.207
ZSWIM8 (UniProt A7E2V4)	0.028	0.0796	-0.0789
MFF (UniProt Q9GZY8)	-0.338	-0.0711	0.0903
HNRNPR (UniProt O43390)	0.306	-0.456	-1.96
MTHFS (UniProt P49914)	-0.574	0.036	-0.488
NUP43 (UniProt Q8NFH3)	2.43	0.779	1.58
SNX5 (UniProt Q9Y5X3)	-0.497	-0.998	-0.458
SSNA1 (UniProt O43805)	1.6	1.39	1.34

Target	thermal stability z-score (lipoamide; [1])	thermal stability z-score (lipoamide; arsenate co-treatment: none)	thermal stability z-score (potassium arsenate)
DTD1 (UniProt Q8TEA8)	0.65	0.308	0.163
TSNAX (UniProt Q99598)	-0.075	-0.0638	-0.215
MRPS30 (UniProt Q9NP92)	-0.185	-0.539	-0.147
SERINC3 (UniProt Q13530)	-0.42	-0.641	-0.788
DIP2A (UniProt Q14689)	0.82	-0.0406	-0.205
RPS20 (UniProt P60866)	1.14	1.14	-0.0402
SFPQ (UniProt P23246)	2.47	2.22	1.15
DTWD1 (UniProt Q8N5C7)	-0.492	-0.205	-0.742
PHYHD1 (UniProt Q5SRE7)	-0.0705	0.173	0.196
YWHAG (UniProt P61981)	0.0458	-0.0254	-0.403
MSN (UniProt P26038)	0.727	0.377	-0.891
LYPLAL1 (UniProt Q5VWZ2)	0.152	0.0691	0.447
BNIP1 (UniProt Q12981)	0.261	-0.294	0.0814
CKB (UniProt P12277)	-0.249	-0.245	-1.02
CASC3 (UniProt O15234)	0.25	0.544	-1.15
ELOVL1 (UniProt Q9BW60)	-0.883	-0.778	0.652
CDV3 (UniProt Q9UKY7)	0.669	0.83	0.683
CEBPB (UniProt P17676)	-0.261	-1.23	-0.856
SIN3A (UniProt Q96ST3)	-0.000782	0.0569	-0.303
ARHGAP17 (UniProt Q68EM7)	0.0634	0.493	0.874
STRN3 (UniProt Q13033)	0.231	0.318	0.326
MANEAL (UniProt Q5VSG8)	-0.276	0.109	0.736
IFT74 (UniProt Q96LB3)	-0.121	-0.049	-0.115
PROCR (UniProt Q9UNN8)	1.19	0.359	1.04

Target	thermal stability z-score (lipoamide; [1])	thermal stability z-score (lipoamide; arsenate co-treatment: none)	thermal stability z-score (potassium arsenate)
ADCK1 (UniProt Q86TW2)	0.36	-0.122	-0.00585
CSTF3 (UniProt Q12996)	0.159	0.0381	-0.661
MAF1 (UniProt Q9H063)	-0.0772	-0.00412	-0.373
ESRP2 (UniProt Q9H6T0)	-0.121	0.00175	0.0815
SLC25A22 (UniProt Q9H936)	-0.147	0.0868	-0.472
TTC27 (UniProt Q6P3X3)	-0.686	-0.257	0.24
DMXL2 (UniProt Q8TDJ6)	-0.191	-0.105	0.00642
PRKAR1B (UniProt P31321)	0.568	0.264	1.31
RERE (UniProt Q9P2R6)	0.0956	-0.103	0.00489
NDUFB8 (UniProt O95169)	0.714	1.42	0.119
FURIN (UniProt P09958)	0.3	0.345	0.11
DHODH (UniProt Q02127)	0.213	0.162	-0.752
HN1L	0.978	0.827	0.214
PPP4R3B (UniProt Q5MIZ7)	-0.195	-0.1	-0.227
DNMT1 (UniProt P26358)	-0.115	0.0323	-0.517
MBNL1 (UniProt Q9NR56)	-0.368	-0.277	-0.983
CNOT3 (UniProt O75175)	-0.0612	0.0363	1.26
ADAM17 (UniProt P78536)	-1.11	-0.994	-0.966
HSD17B10 (UniProt Q99714)	0.921	0.151	-1.29
LSM1 (UniProt O15116)	1.6	2.05	0.83
PEX1 (UniProt O43933)	-0.254	-0.723	-0.382
PHKA1 (UniProt P46020)	-0.125	-0.051	0.0887
MRPL35 (UniProt Q9NZE8)	-0.257	-0.048	0.129
